Where a SMILES comes first, the peptide text is derived from it.

In turn, `O=C1CN=C(c2ccc(F)cc2)c2ccccc2N1` yielded a logP of 2.38.
The molecule `CC(C)CC(N)C(=O)N1CCCC1C(=O)NC(CC(C)C)C(=O)NC(CC(C)C)C(=O)O` (stereo not given) (H-LPLL-OH; configuration not given here) showed a logP of -0.92.
Then `Cc1c(O)c(=O)ccn1CCCOC(=O)c1ccc(F)cc1`, with 1.47; and `CC(C)CC(NC(=O)C(Cc1ccc(O)cc1)NC(=O)C(N)Cc1ccc(O)cc1)C(=O)O` (stereo not drawn) (H-Tyr-Tyr-Leu-OH; configuration not given here), with -1.38; and `FC(F)(F)c1cccc(CNc2[nH]cnc3ncnc2-3)c1`, with 3.08.
`Nc1nc(N)c2c(N3CCOCC3)cccc2n1` yielded a logP of 1.11.
For `CCON=C(CC)C1=C(O)CC(c2cccc(Oc3ccc(Cl)c(Cl)c3)c2)CC1=O` (stereo not given), the logP was 6.32.
For the molecule `CCNC(=O)Cn1cccc(O)c1=O`, the logP was -0.74.
Consider `COc1ccc(C2Cc3cc(OC)ccc3N(CCN(C)C)C(=O)C2OC(C)=O)cc1` (stereo not given), for which the logP stood at 3.2.
Turning to `CS(=O)(=O)Nc1cccc(Cn2cnc3ccccc32)c1`, the logP turned out to be 2.08.
Then `CNC(=O)Oc1ccc2c(c1)CC(c1ccc(OC)cc1)C(OC(C)=O)C(=O)N2CCN(C)C` (stereo not given), with 2.31; and `O=C(O)CCCCON=C(c1cccc(C(F)(F)F)c1)c1cnccn1`, with 3.26.
`COc1ccc(CCNCC(O)COc2ccc(-c3ncco3)cc2)cc1OC` (stereo not given) showed a logP of 2.6.
`CC(C)C(NC(=O)C(N)Cc1ccccc1)C(=O)NC(Cc1ccccc1)C(=O)O` (stereo not drawn) (H-Phe-Val-Phe-OH; configuration not given here) displayed a logP of -0.76.
Under `CC(C)CC(N)C(=O)NC(C(=O)NC(C(=O)O)C(C)C)C(C)C` (stereo not drawn) (H-Leu-Val-Val-OH; configuration not given here) stands -2.1; under `CC(=O)c1ccc2ccc3cccc4ccc1c2c34`, 4.18.
In the case of `CC(C)(C)[N+]([O-])=Cc1ccc(C(=O)O)cc1`, the logP amounted to 1.1.
For `Clc1cc(Cl)c2c(oc3cccc(Cl)c32)c1Cl`, the logP was found to be 5.89.
Take `CCC1CC2C3CCC4=CC(=O)CCC4C3CCC2(C)C1C(=O)CO` (stereo not given): the logP was 4.01.
On to `Cc1ccc(CO)c(C=NNC(=O)c2ccc(C(C)(C)C)cc2)c1O`, for which the logP is 4.73.
Regarding `CCCCCC(=O)OCC(=O)C1(O)C(C)CC2C3CCC4=CC(=O)C=CC4(C)C3(F)C(O)CC21C` (stereo not given), the logP is 4.3.
As to `O=C(O)CCCON=C(c1ccccc1)c1ccncn1`, the logP is 1.95.
Then `NC(=O)C(N)Cc1c[nH]c2ccccc12` (stereo not given), with 0.3; and `CC(C)CC(NC(=O)C(CC(C)C)NC(=O)C(N)CO)C(=O)O` (stereo not drawn) (H-Ser-Leu-Leu-OH; configuration not given here), with -2.03.
`O=C(Nc1ccccc1C(=O)O)c1ccccc1` showed a logP of 3.54.
`Cc1coc2cc3oc(=O)cc(C)c3cc12`: the logP stood at 2.76.
`Cc1cc(C)c2c(c1)COP(=O)(OCC1C=CC(n3cc(C)c(=O)[nH]c3=O)O1)O2` (stereo not given) came in with a logP of 1.18.
Take `CC(C)CCCCCNc1[nH]cnc2ncnc1-2`: the logP is 4.16.
With `COC(=O)C(=Cc1ccccc1)S(=O)(=O)c1ccc([N+](=O)[O-])cc1`, the logP was found to be 2.9.
Molecule `Cc1ccc2c(c1)C(=O)N(CCO[N+](=O)[O-])CO2` showed a logP of 2.41.
`CC1CC(N)CN1c1nc2c(cc1F)c(=O)c(C(=O)O)cn2-c1ccc(F)cc1F` (stereo not given) gave a logP of -0.2.
Molecule `CCOC1N=C(c2ccccc2)c2cc(Cl)ccc2N(CCCl)C1=O` (stereo not given) yielded a logP of 3.95.
`COC(=O)C(C)NP(=O)(OCC1C=CC(n2cc(C)c(=O)[nH]c2=O)O1)Oc1cccc(C(C)=O)c1` (stereo not given) showed a logP of 0.92.
Consider `Cc1nc2c3c(c(C(=O)NC4CCC4)cn2c1C)CCC(c1ccccc1)O3` (stereo not given), for which the logP is 4.5.
The molecule `CNC(=S)NN=C(c1cccc([N+](=O)[O-])c1)c1ccccn1` showed a logP of 2.14.
Under `CCc1ccc(CNc2[nH]cnc3ncnc2-3)cc1` stands 3.17; under `CC(=O)Nc1cc(NCC(C)O)c(Cl)cc1N=Nc1ccc([N+](=O)[O-])cc1Cl` (stereo not given), 4.
`FC(F)(F)c1ccc(CNc2[nH]cnc3ncnc2-3)cc1`: the logP worked out at 3.19.
Molecule `O=C1C=C(N2CCOCC2)C(=O)N1c1ccc(Cl)cc1` showed a logP of 2.3.
`NC1=NCC(COc2ccccc2Cc2ccccc2)O1` (stereo not given) showed a logP of 3.05.
`C=CC(=O)OCC(COC(=O)C=C)(COC(=O)C=C)COC(=O)C=C`: the logP came out at 2.11.
Consider `OC(CCNC1CCCCC1)COc1cccc2ccccc12` (stereo not given), for which the logP was determined as 3.99.
Molecule `Cc1nc2c3c(c(C(=O)N(C)C)cn2c1C)CCC(c1ccccc1)O3` (stereo not given) had a logP of 3.3.
On to `CN(C)c1cccc2nc(N)nc(N)c12`, for which the logP came to 1.65.
The molecule `Nc1nc(N)nc(O)n1` returned a logP of -0.19.
With `CCOC(=O)CCCn1cc([N+](=O)[O-])nc1C`, the logP was 0.58.
The molecule `Cc1c(O)c(=O)ccn1CCCOC(=O)c1ccc(N(C)C)cc1` showed a logP of 1.66.
For `O=C(Nc1ncc([N+](=O)[O-])s1)c1ccc(Cl)c(Cl)c1`, the logP stood at 4.14.
Then `CCC(C)C(N)C(=O)NC(C(=O)NC(C(=O)NC(C(=O)O)C(C)C)C(C)C)C(C)CC` (stereo not given) (H-IIVV-OH; configuration not given here), with -1.41; and `CCOC(=O)c1c[nH]c2ccccc12`, with 3.04; and `Cc1c(C)c2occc2c2oc(=O)ccc12`, with 2.84.
`COCC(O)CN(C(C)=O)c1c(I)c(C(=O)NCC(O)CO)c(I)c(C(=O)NCC(O)CO)c1I` (stereo not given) registered a logP of -2.42.
`c1nc(N2CCCC2)c2[nH]cnc2n1` displayed a logP of 1.68.
Then `COc1cccc(OCC2CN=C(N)O2)c1` (stereo not given), with 1.34.
The molecule `CN1CC(O)N(C(=O)NC2CCCCCC2)C1=O` (stereo not given) gave a logP of 2.29.
In turn, `CCCCCCCCCCCCNCCO` showed a logP of 4.51.
`CC(C)(C)[N+]([O-])=Cc1ccc(Cl)cc1` gave a logP of 2.4.
`CN(C)CCOc1ccccc1Cl`: the logP was 2.87.
Take `CCC(C)C(NC(=O)C(CC(C)C)NC(=O)C(N)CO)C(=O)O` (stereo not drawn) (H-Ser-Leu-Ile-OH; configuration not given here): the logP is -1.99.
Then `O=C(O)CCCON=C(c1ccccc1)c1cncnc1`, with 2.2; and `CCOc1cc2ncnc(Nc3ccccc3F)c2cc1OCC`, with 3.02; and `CN(C)CCOc1cc2c(c3ccccc13)-c1ccccc1C2=O`, with 4.32.
`O=S1CCCC1` returned a logP of -0.96.
Turning to `CCNN=Nc1ccc(C(N)=O)cc1`, the logP worked out at 1.19.
Under `O=C(O)c1cccc(F)c1F` stands 1.88.
`CC(=O)N(O)CCCCCNC(=O)CCC(=O)N(O)CCCCCNC(=O)CCC(=O)N(O)CCCCCNS(C)(=O)=O` registered a logP of -0.36.
Under `O=c1ccc2cc3ccsc3cc2s1` stands 2.96; under `OCCCCCNc1ncnc2c1ncn2C1OC(CO)C(O)C1O` (stereo not given), -0.24.
Under `O=C(NO)C(=Cc1ccccc1)C(=O)NCc1ccc(F)cc1` stands 1.7; under `O=C(NO)C(Cc1ccccc1)C(=O)NCc1ccc(F)cc1` (stereo not given), 1.8; under `CC(C)CC(NC(=O)C(Cc1ccccc1)NC(=O)C(N)C(C)C)C(=O)NC(C(=O)O)C(C)O` (stereo not given) (H-VFLT-OH; configuration not given here), -1.32.
Consider `CC(C)C(NC(=O)C(Cc1ccccc1)NC(=O)CNC(=O)CN)C(=O)NC(Cc1ccccc1)C(=O)O` (stereo not given) (H-GGFVF-OH; configuration not given here), for which the logP is -1.4.
Regarding `COc1ccc(CNCC(O)CON=C(C2CC2)C2CC2)c(OC)c1` (stereo not given), the logP came out at 2.22.
For the molecule `CC(C)=CCNc1ncnc2c1ncn2[C@@H]1O[C@H](CO)[C@@H](O)[C@H]1O`, the logP was 1.3.
For the molecule `c1ccc(CCNc2ncnc3nc[nH]c23)cc1`, the logP was 2.42.
Molecule `Nc1nc(N)nc(-c2ccc(SC(F)(F)F)cc2)n1` registered a logP of 3.2.
On to `CC12CCC(c3c1ssc3=S)C2(C)C` (stereo not given), for which the logP turned out to be 3.8.
Under `Cc1ccc([N+](=O)[O-])c(C(=O)O)c1` stands 1.63; under `COC(=O)C(=Cc1cnc(SC(C)=O)n1C)C(=O)OC`, -0.43.
Consider `C[N+](C)([O-])CC(c1ccccc1)c1ccccc1`, for which the logP is 1.01.
As for `Cc1cccc2c1C(=O)N(CCO[N+](=O)[O-])CO2`, the logP turned out to be 2.54.
Regarding `COC(=O)c1[nH]cc(-c2ccc(Cl)cc2)c1N1CCOCC1`, the logP is 3.5.
With `CCCCOC(NC(=O)c1ccccc1O)C(Cl)(Cl)Cl` (stereo not given), the logP was found to be 4.45.
`CCCCCCCOC(C)=O` showed a logP of 3.46.
For the molecule `O=C(O)CCCCON=C(c1ccnnc1)c1cccc(C(F)(F)F)c1`, the logP came out at 2.99.
`CC(=O)NC(CCCCNC(=O)N(CCCl)N=O)C(=O)NCc1ccccc1` (stereo not given) returned a log partition coefficient (logP) of 1.54.
Under `c1ccc(CCN2CCN(CCn3nc4ccccc4n3)CC2)cc1` stands 3.72; under `CSCCC(NC(=O)C(Cc1ccccc1)NC(=O)CNC(=O)CNC(=O)C(N)Cc1ccc(O)cc1)C(=O)O` (stereo not given), -1.39; under `O=C1NC(=O)C(c2ccccc2)(c2ccccc2)N1S(=O)(=O)c1ccc(O)cc1`, 3.58.
In the case of `CCN(CC)C(=O)c1cn2c(C)c(C)nc2c2c1CCC(c1ccccc1)O2` (stereo not given), the logP worked out at 4.
In the case of `c1ccc(Nc2nnc(Cn3ccc4ccccc43)s2)cc1`, the logP amounted to 3.47.
In turn, `CC1CCCCN1CC1CN=C(N)O1` (stereo not given) registered a logP of 0.73.
In turn, `CCOc1cccc(NC(=O)OCCN2CCCCC2)c1` registered a logP of 3.77.
`COc1ccc(C2Cc3c(ccc(Br)c3OC)N(CCN(C)C)C(=O)C2OC(C)=O)cc1` (stereo not given): the logP amounted to 4.4.
`C#CCOc1noc2c1CNCC2` returned a lipophilicity (logP) of 0.4.
In turn, `COC(=O)C(C)NP(=O)(OCC1C=CC(n2cc(C)c(=O)[nH]c2=O)O1)Oc1ccc(F)cc1` (stereo not given) had a logP of 1.1.
`CCNc1ncnc2c1ncn2C1OC(CO)C(O)C1O` (stereo not given): the logP was 0.01.
`COC1CC(OC2C(C)OC(OC3CCC4(C)C(CCC5C4CC(O)C4(C)C(C6=CC(=O)OC6)CCC54O)C3)CC2OC)OC(C)C1OC1CC(O)C(O)C(C)O1` (stereo not given) returned a logP of 2.14.
Turning to `CCCN(CCCC(NC(C)=O)C(=O)NCc1ccccc1)C(=O)N(CCCl)N=O` (stereo not given), the logP was 1.57.
Regarding `COc1ccc(CCNCC(O)COc2ccc(-c3nc(C(C)C)c[nH]3)cc2)cc1OC` (stereo not given), the logP was 3.9.

The record behind these values is the OPERA property sets (Mansouri et al. 2018).
